Experiment [1] deals with human RORγ ligand binding domain (GST-hRORγ-LBD) (Homo sapiens (Human), UniProt P51449). Put plainly: TR-FRET assay (biochemical cofactor interaction assay, GST-hRORγ-LBD / TRAP220 peptide). From the text:
RORγ is an orphan member of the nuclear receptor (NR) family displaying constitutive activity. The activity of nuclear receptors can be modulated by ligand-induced cofactor protein interactions. For example, agonist binding leads to recruitment of coactivator protein, and antagonist binding either blocks coactivator interaction or facilitates the recruitment of corepressors. […] The conformational change induced by ligand binding influences interactions with LXXLL motif peptides.
RORγ (t) is a thymus-specific isoform of RORγ which is widely expressed. It shares the same ligand binding domain (LBD) sequence with RORγ. Thus, a screen using the LBD will yield antagonists targeting both RORγ and RORγt.
In order to identify compounds which block activity of the human nuclear receptor Retinoid-related Orphan Receptor gamma (RORγ) a biochemical cofactor interaction assay based on the TR-FRET principle is performed. […] The ligand-binding domain (LBD) of RORγ is expressed as fusion protein with GST in […] cells using the vector pDEST15. Cells are lysed by lysozyme-treatment and sonication, and the fusion proteins purified over glutathione sepharose (Pharmacia) according to the manufacturers instructions. The strong constitutive interaction is disrupted upon binding of functional antagonists. The strength of the interaction is monitored by TR-FRET between streptavidine APC interacting with the biotinylated peptide and Europium-labelled Anti-GST.

Experiment [2] addresses RORγ Ligand binding domain (RORγ-LBD, aa 238-497, NP_001001523) (Homo sapiens (Human), UniProt P51449). In words: ROR γ GAI4 Reporter Gene Assay (Mammalian one-hybrid, M1H) in 293T cells. In kind it is cell-based. From the text:
ROR γ GAI4 Reporter Gene Assay
A Mammalian one-hybrid system is used to perform a cell-based functional transactivation assay for detecting RORγ activity modulators.
The Mammalian-1-Hybrid is derived from the Mammalian-2-Hybrid setup. Whereas in the latter, the binding partners are defined in their role as interaction, transactivation and DNA-binding components, the Mammalian-1-Hybrid makes use of the fact that all mammalian cell types express a set of Nuclear Receptors and their associated cofactors. […] A Gal4 minimal promoter driven luciferase construct (pFR-Luc from Stratagene, containing a synthetic promoter with five tandem repeats of the yeast GAL4 binding sites controlling expression of the Photinus pyralis luciferase gene) is used as reporter. The Gal4-DBD-NR-LBD fusion protein by itself cannot initiate transcription and is dependent on the presence of cofactors present in the cellular system used.
In order to rule out cytotoxic and unspecific transcriptional compound effects a transfection with a firefly luciferase driven by the constitutive CMV promoter is performed in parallel.
After transfection 18 μl complete MEM medium containing 3% charcoal-dextran treated FBS is added as well as 4 μl test compounds (DMSO stocks prediluted in OptiMem (Invitrogen)) followed by incubation for 16-24 h at 37° C., 5% CO2 and 90% rH.
Firefly luciferase activity is measured using the Promega ONE-Glo™ Luciferase Assay System.
On the technique in general: Reporter assays use an easily measured gene product as a stand-in for the process of interest.

From patent publication US9688684B2, “Substituted tetrazolo[1,5-a]pyrazines as ROR-gamma inhibitors” (Merck Patent GmbH, priority 2013, dated 2017) come the findings set out here.

By IC50 is commonly meant the point on the concentration scale where inhibition reaches its midpoint. Low values mean higher potency, high ones lower potency.

The structures appear in SMILES notation.

Chain of RORγ Ligand binding domain (RORγ-LBD, aa 238-497, NP_001001523) (P51449 259-518): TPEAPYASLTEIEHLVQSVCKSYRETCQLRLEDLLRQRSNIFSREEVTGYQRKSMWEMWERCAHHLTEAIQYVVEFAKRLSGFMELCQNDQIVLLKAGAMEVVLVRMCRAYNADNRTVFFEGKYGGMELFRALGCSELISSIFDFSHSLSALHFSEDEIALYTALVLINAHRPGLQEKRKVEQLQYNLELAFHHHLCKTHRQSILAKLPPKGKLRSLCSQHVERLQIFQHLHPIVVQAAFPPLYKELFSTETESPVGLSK
Chain of human RORγ ligand binding domain (GST-hRORγ-LBD) (P51449 269-508): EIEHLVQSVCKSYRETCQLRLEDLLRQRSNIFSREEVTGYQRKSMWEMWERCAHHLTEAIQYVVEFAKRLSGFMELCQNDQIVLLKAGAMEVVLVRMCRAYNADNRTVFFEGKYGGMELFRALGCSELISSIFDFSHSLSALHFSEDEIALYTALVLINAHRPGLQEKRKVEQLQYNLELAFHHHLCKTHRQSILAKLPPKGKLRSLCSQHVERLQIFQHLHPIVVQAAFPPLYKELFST

With `Cc1cccc(CN2CCn3nnnc3C2c2ccc(OC(C)C)cc2)c1` (stereo not shown) [Compound 99, 8-(4-Isopropoxy-phenyl)-7-(3-methyl-benzyl)-5,6,7,8-tetrahydro-tetrazolo[1,5-a]pyrazine], the half-maximal inhibitory concentration (IC50) in experiment [1] lay in the range of 0.01 to 0.99 µM; in experiment [2] it was 0.99 to 9.9 µM.

For `Fc1ccc(C2c3nnnn3CCN2Cc2cccc(Br)c2)cc1` (racemic) [Compound 96, 7-(3-Bromo-benzyl)-8-(4-fluoro-phenyl)-5,6,7,8-tetrahydro-tetrazolo[1,5-a]pyrazine], the results for the IC50 in experiment [1] and in experiment [2] were 0.01 to 0.99 µM and 0.99 to 9.9 µM, respectively.

Consider `Cc1cccc(CN2CCn3nnnc3C2c2ccc(F)cc2)c1` (single isomer, unassigned) [Compound 93-a, 8-(4-Fluoro-phenyl)-7-(3-methyl-benzyl)-5,6,7,8-tetrahydro-tetrazolo[1,5-a]pyrazine], for which the half-maximal inhibitory concentration (IC50) in experiment [1] was 0.01 to 0.99 µM; in experiment [2], 0.99 to 9.9 µM.

As to `Cc1cccc(CN2CCn3nnnc3C2c2cccc(F)c2)c1` (stereo not shown) [Compound 116, 8-(3-Fluoro-phenyl)-7-(3-methyl-benzyl)-5,6,7,8-tetrahydro-tetrazolo[1,5-a]pyrazine], the IC50 in experiment [1] and in experiment [2] was 0.99 to 9.9 µM each time.

Regarding `CC(C)c1nn(-c2ccccc2)cc1C1c2nnnn2CCN1Cc1ccc2c(c1)OCO2` (stereo not shown) [Compound 58, 7-Benzo[1,3]dioxol-5-ylmethyl-8-(3-isopropyl-1-phenyl-1H-pyrazol-4-yl)-5,6,7,8-tetrahydro-tetrazolo[1,5-a]pyrazine], the results for the IC50 in experiment [1] and in experiment [2] were 9.9 to 40 µM and 0.99 to 9.9 µM, respectively.

On to `Fc1ccc(C2c3nnnn3CCN2Cc2cccc(Br)c2)cc1` (single isomer, unassigned) [Compound 96-a, 7-(3-Bromo-benzyl)-8-(4-fluoro-phenyl)-5,6,7,8-tetrahydro-tetrazolo[1,5-a]pyrazine], for which the IC50 in experiment [1] was 0.01 to 0.99 µM; in experiment [2] it was 0.99 to 9.9 µM.

As to `CC(C)c1nn(-c2ccccc2)cc1C1c2nnnn2CCN1Cc1cccs1` (single isomer, unassigned) [Compound 61-b, 8-(3-Isopropyl-1-phenyl-1H-pyrazol-4-yl)-7-thiophen-2-ylmethyl-5,6,7,8-tetrahydro-tetrazolo[1,5-a]pyrazine], the IC50 in experiment [1] was in the range of 9.9 to 40 µM; in experiment [2] it was 0.99 to 9.9 µM.

For the molecule `CC(C)c1nn(-c2ccccc2)cc1C1c2nnnn2CCN1Cc1cccs1` (single isomer, unassigned) [Compound 61-a, 8-(3-Isopropyl-1-phenyl-1H-pyrazol-4-yl)-7-thiophen-2-ylmethyl-5,6,7,8-tetrahydro-tetrazolo[1,5-a]pyrazine], the half-maximal inhibitory concentration (IC50) in experiment [1] and in experiment [2] was 0.01 to 0.99 µM throughout.

As for `Fc1ccccc1C1c2nnnn2CCN1Cc1cccs1` (stereo not shown) [Compound 137, 8-(2-Fluoro-phenyl)-7-thiophen-2-ylmethyl-5,6,7,8-tetrahydro-tetrazolo[1,5-a]pyrazine], the IC50 in experiment [1] was 0.99 to 9.9 µM; in experiment [2], 9.9 to 40 µM.

As for `CC(C)(C)c1nn(Cc2ccccc2)cc1C1c2nnnn2CCN1Cc1cccs1` (stereo not shown) [Compound 160, 8-(1-Benzyl-3-tert-butyl-1H-pyrazol-4-yl)-7-thiophen-2-ylmethyl-5,6,7,8-tetrahydro-tetrazolo[1,5-a]pyrazine], the 50% inhibitory concentration (IC50) was 9.9 to 40 µM in experiment [1] and 0.99 to 9.9 µM in experiment [2].

For the molecule `COc1ccc(OC)c(CN2CCn3nnnc3C2c2cn(-c3ccccc3)nc2C(C)C)c1` (stereo not shown) [Compound 54, 7-(2,5-Dimethoxy-benzyl)-8-(3-isopropyl-1-phenyl-1H-pyrazol-4-yl)-5,6,7,8-tetrahydro-tetrazolo[1,5-a]pyrazine], the IC50 in experiment [1] and in experiment [2] was 9.9 to 40 µM throughout.

Regarding `Cc1c(CN2CCn3nnnc3C2c2cn(-c3ccccc3)nc2C(C)C)cnn1C` (stereo not shown) [Compound 156, 7-(1,5-Dimethyl-1H-pyrazol-4-ylmethyl)-8-(3-isopropyl-1-phenyl-1H-pyrazol-4-yl)-5,6,7,8-tetrahydro-tetrazolo[1,5-a]pyrazine], the concentration for half-maximal inhibition (IC50) in experiment [1] and in experiment [2] was 9.9 to 40 µM throughout.

Turning to `CC(C)c1nn(-c2ccccc2)cc1C1c2nnnn2CCN1Cc1cnn(Cc2ccccc2)c1` (stereo not shown) [Compound 161, 7-(1-Benzyl-1H-pyrazol-4-ylmethyl)-8-(3-isopropyl-1-phenyl-1H-pyrazol-4-yl)-5,6,7,8-tetrahydro-tetrazolo[1,5-a]pyrazine], the IC50 in experiment [1] and in experiment [2] was 0.99 to 9.9 µM each time.

In the case of `Clc1ccc(C2c3nnnn3CCN2Cc2cccs2)cc1` (stereo not shown) [Compound 106, 8-(4-Chloro-phenyl)-7-thiophen-2-ylmethyl-5,6,7,8-tetrahydro-tetrazolo[1,5-a]pyrazine], the figures for the half-inhibitory concentration (IC50) in experiment [1] and in experiment [2] were 0.01 to 0.99 µM and 9.9 to 40 µM, respectively.

In the case of `CCOc1ccc(C2c3nnnn3CCN2Cc2ccc(F)cc2)cc1` (stereo not shown) [Compound 134, 8-(4-Ethoxy-phenyl)-7-(4-fluoro-benzyl)-5,6,7,8-tetrahydro-tetrazolo[1,5-a]pyrazine], the IC50 lay within 0.99 to 9.9 µM in experiment [1] and 9.9 to 40 µM in experiment [2].

Take `Fc1cccc(C2c3nnnn3CCN2Cc2cccc(Br)c2)c1` (stereo not shown) [Compound 163, 7-(3-Bromo-benzyl)-8-(3-fluoro-phenyl)-5,6,7,8-tetrahydro-tetrazolo[1,5-a]pyrazine]: the IC50 in experiment [1] is 0.01 to 0.99 µM; in experiment [2] it was 9.9 to 40 µM.

For `CC(C)Oc1ccc(C2c3nnnn3CCN2Cc2ccc3c(c2)OCO3)cc1` (stereo not shown) [Compound 131, 7-Benzo[1,3]dioxol-5-ylmethyl-8-(4-isopropoxy-phenyl)-5,6,7,8-tetrahydro-tetrazolo[1,5-a]pyrazine], the concentration for half-maximal inhibition (IC50) lay in the range of 0.99 to 9.9 µM in experiment [1] and 9.9 to 40 µM in experiment [2].

In the case of `Fc1ccc(CN2CCn3nnnc3C2c2ccc3c(c2)OCCO3)cc1` (stereo not shown) [Compound 133, 8-(2,3-Dihydro-benzo[1,4]dioxin-6-yl)-7-(4-fluoro-benzyl)-5,6,7,8-tetrahydro-tetrazolo[1,5-a]pyrazine], the figures for the IC50 in experiment [1] and in experiment [2] were 0.99 to 9.9 µM and 9.9 to 40 µM, respectively.

With `Fc1cccc(CN2CCn3nnnc3C2c2cccc(F)c2)c1` (stereo not shown) [Compound 38, 7-(3-Fluoro-benzyl)-8-(3-fluoro-phenyl)-5,6,7,8-tetrahydro-tetrazolo[1,5-a]pyrazine], the IC50 in experiment [1] and in experiment [2] was 0.99 to 9.9 µM each time.

`COc1ccc(OC)c(C2c3nnnn3CCN2Cc2ccc(F)cc2)c1` (stereo not shown) [Compound 128, 8-(2,5-Dimethoxy-phenyl)-7-(4-fluoro-benzyl)-5,6,7,8-tetrahydro-tetrazolo[1,5-a]pyrazine]: the figures for the IC50 in experiment [1] and in experiment [2] were 0.99 to 9.9 µM and 9.9 to 40 µM, respectively.
